Results taken from patent US20080009415A1, “Fungicidal Mixtures” (BASF Aktiengesellschaft, priority 2004, published 2008).

System: Alternaria solani
Test: Activity against early blight of tomato caused by Alternaria solani
Type: in vivo
Conditions: single active compound, leaves sprayed to runoff, infected next day, assessed after 5 days, efficacy in % of untreated control (Abbot)
Experimental: The active compounds were prepared separately or jointly as a stock solution with 25 mg of active compound which was made up to 10 ml using a mixture of acetone and/or DMSO and the emulsifier Uniperol®) EL (wetting agent having emulsifying and dispersing action based on ethoxylated alkylphenols) in a volume ratio of solvent/emulsifier of 99 to 1. The mixture was then made up with water to 100 ml. This stock solution was diluted with the solvent/emulsifier/water mixture described to the concentration of active compounds stated below.
The visually determined percentages of infected leaf areas were converted into efficacies in % of the untreated control:
The efficacy (E) is calculated as follows using Abbot's formula: E=(1−α/β)·100 α corresponds to the fungicidal infection of the treated plants in % and β corresponds to the fungicidal infection of the untreated (control) plants in % An efficacy of 0 means that the infection level of the treated plants corresponds to that of the untreated control plants; an efficacy of 100 means that the treated plants were not infected.
The expected efficacies of mixtures of active compounds were determined using Colby's formula (Colby, S. R. “Calculating synergistic and antagonistic responses of herbicide combinations”, Weeds, 15, 20-22, 1967) and compared with the observed efficacies.
Colby's formula: E=x+y−x·y/100
E expected efficacy, expressed in % of the untreated control, when using the mixture of the active compounds A and B at the concentrations a and b x efficacy, expressed in % of the untreated control, when using the active compound A at the concentration a y efficacy, expressed in % of the untreated control, when using the active compound B at the concentration b Use Example—Activity Against Early Blight of Tomato Caused by Alternaria solani Leaves of potted plants of the cultivar “Goldene Königin” were sprayed to runoff point with an aqueous suspension having the concentration of active compound stated below. […]

Row | Compound | Observed efficacy (%) (Conc. 4 ppm) | Observed efficacy (%) (Conc. 1 ppm)
1 | CO/C=C(/C(=O)OC)c1ccccc1CO/N=C(C)/C=C/c1ccc(Cl)cc1 [enestroburin (I), methyl 2-{2-[3-(4-chlorophenyl)-1-methylallylideneaminooxymethyl]phenyl}-3-methoxyacrylate] | 22% | 
2 | COc1cc(C)c(C(=O)c2c(OC)ccc(Br)c2C)c(OC)c1OC [metrafenone (II-41), 3′-bromo-2,3,4,6′-tetramethoxy-2′,6-dimethylbenzophenone] | 0% | 0%
